pIC50: −log10 of the molar value.
Assays:
[1] = Inhibition of C-terminal His-tagged HCV genotype 1b NS5Bdelta21 expressed in Escherichia coli BL21 (DE3) using synthetic 20mer RNA/[32P]GpG as template/primer after 90 mins by PAGE analysis; set-up: species or system Hepatitis C virus subtype 1b
[2] = Inhibition of HCV genotype 1b NS5B S96T mutant; set-up: species or system Hepatitis C virus subtype 1b
[3] = Inhibition of wild type HCV genotype 2a NS5B; set-up: species or system Hepatitis C virus subtype 2a
[4] = Inhibition of wild type HCV genotype 4a NS5B; set-up: species or system Hepatitis C virus subtype 4a
[5] = Inhibition of RNA polymerase 2 isolated from human HeLa cell nuclear extract assessed as decrease in incorporation of P32-alpha-CTP after 2 hrs by scintillation counting method; format: cell-free
[6] = target: DNA-directed RNA polymerase, mitochondrial (Homo sapiens) (UniProt O00411); experiment: Inhibition of human POLRMT using 5'-P32-RNA/DNA hybrid assessed as incorporation of UTP at 100 uM after 2 hrs by scintillation counting method relative to control; set-up: scale not given: the % may be the effect or the level left
Chain of DNA-directed RNA polymerase, mitochondrial (Homo sapiens) (O00411 whole entry): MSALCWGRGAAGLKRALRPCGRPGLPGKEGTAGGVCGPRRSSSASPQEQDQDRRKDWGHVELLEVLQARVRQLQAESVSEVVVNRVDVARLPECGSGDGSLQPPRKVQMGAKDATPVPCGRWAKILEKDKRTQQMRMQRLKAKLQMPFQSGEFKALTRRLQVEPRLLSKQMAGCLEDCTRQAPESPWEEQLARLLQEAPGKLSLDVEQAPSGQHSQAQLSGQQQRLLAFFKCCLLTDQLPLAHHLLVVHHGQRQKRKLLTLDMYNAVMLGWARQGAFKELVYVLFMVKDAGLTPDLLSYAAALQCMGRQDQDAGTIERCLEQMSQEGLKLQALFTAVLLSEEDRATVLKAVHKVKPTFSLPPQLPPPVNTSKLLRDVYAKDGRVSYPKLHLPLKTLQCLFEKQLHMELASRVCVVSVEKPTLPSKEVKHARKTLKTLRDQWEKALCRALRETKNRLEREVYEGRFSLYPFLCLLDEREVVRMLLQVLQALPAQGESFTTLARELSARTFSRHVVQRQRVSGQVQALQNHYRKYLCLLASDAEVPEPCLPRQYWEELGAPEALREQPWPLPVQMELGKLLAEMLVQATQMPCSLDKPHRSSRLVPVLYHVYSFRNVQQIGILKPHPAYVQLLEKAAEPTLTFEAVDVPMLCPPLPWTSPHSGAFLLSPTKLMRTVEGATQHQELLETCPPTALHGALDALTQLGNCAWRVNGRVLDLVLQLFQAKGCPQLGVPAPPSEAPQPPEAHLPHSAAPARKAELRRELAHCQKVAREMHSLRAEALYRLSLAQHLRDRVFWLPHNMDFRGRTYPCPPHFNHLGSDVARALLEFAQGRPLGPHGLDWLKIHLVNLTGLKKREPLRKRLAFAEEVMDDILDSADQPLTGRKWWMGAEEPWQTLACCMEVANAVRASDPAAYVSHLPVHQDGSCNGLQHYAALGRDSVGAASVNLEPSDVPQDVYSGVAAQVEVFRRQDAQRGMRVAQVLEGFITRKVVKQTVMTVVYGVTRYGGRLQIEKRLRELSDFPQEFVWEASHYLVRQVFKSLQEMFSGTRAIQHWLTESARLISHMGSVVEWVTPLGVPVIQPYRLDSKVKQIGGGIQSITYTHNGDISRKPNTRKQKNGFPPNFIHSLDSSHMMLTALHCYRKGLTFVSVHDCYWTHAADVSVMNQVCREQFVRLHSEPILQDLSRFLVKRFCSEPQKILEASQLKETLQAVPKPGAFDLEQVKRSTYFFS

[7] = target: T1, DNA polymerase alpha catalytic subunit (Homo sapiens, UniProt P09884); experiment: Inhibition of human DNA polymerase alpha using 5' end radiolabeled 24nt DNA/48nt DNA as primer/template after 5 mins by PAGE analysis
T1 sequence (P09884 whole entry): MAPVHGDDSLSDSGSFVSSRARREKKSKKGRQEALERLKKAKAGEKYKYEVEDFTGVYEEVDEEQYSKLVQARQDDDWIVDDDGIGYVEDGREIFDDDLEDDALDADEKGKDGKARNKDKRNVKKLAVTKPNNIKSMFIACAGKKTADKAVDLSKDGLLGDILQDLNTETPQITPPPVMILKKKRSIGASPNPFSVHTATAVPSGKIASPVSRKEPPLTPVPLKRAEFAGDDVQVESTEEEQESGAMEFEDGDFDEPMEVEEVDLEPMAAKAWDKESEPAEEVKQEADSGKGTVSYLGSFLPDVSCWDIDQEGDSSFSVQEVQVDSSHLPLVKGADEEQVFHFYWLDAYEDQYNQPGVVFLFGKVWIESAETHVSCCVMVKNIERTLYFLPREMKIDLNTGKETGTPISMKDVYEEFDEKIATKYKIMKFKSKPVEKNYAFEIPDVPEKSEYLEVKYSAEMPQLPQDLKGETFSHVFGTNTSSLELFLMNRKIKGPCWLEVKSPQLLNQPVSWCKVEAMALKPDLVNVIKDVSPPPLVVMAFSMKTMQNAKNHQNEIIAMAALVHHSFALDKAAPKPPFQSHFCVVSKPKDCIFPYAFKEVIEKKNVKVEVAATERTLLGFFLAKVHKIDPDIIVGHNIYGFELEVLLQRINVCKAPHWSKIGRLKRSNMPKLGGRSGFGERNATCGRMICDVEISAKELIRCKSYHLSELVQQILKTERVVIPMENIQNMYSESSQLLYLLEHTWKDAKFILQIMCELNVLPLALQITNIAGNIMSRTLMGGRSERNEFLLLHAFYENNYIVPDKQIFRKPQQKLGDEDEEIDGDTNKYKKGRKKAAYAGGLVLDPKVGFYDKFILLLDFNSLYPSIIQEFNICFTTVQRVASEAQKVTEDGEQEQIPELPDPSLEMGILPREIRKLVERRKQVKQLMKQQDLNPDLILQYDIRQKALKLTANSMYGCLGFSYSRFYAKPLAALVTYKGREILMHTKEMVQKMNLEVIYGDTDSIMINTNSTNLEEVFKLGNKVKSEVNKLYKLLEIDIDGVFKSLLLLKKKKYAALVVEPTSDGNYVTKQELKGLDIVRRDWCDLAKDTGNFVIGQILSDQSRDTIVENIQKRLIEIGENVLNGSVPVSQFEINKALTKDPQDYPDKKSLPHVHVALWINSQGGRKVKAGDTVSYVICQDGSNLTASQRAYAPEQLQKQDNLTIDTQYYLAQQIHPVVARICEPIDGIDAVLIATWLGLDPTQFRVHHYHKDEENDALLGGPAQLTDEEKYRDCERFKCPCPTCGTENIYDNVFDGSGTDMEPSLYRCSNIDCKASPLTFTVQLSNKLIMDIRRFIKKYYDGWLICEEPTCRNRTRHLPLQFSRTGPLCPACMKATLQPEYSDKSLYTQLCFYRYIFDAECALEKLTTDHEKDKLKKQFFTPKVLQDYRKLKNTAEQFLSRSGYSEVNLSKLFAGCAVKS

DNA polymerase beta = DNA polymerase beta (Homo sapiens, UniProt P06746); experiment: Inhibition of human DNA polymerase beta using 5' end radiolabeled 24nt DNA/48nt DNA as primer/template after 5 mins by PAGE analysis
[8] = Inhibition of human DNA polymerase gamma using 5' end radiolabeled 24nt DNA/36nt DNA as primer/template after 120 mins by PAGE analysis

Row | SMILES | pIC50 [1] | pIC50 [2] | pIC50 [3] | pIC50 [4] | pIC50 [5] | Activity [6] [%] | pIC50 [7] | pIC50 (DNA polymerase beta) | pIC50 [8]
1 | O=c1ccn([C@@H]2O[C@H](COP(=O)(O)OP(=O)(O)OP(=O)(O)O)C(O)C2(F)Cl)c(=O)[nH]1 (single isomer, unassigned) | 5.26 | 4.89 | 5.21 | 5.07 | < 4.00 | 35 | 4.69 | < 4.00 | < 4.00
2 | C[C@@]1(F)[C@H](O)[C@@H](COP(=O)(O)OP(=O)(O)OP(=O)(O)O)O[C@H]1n1ccc(=O)[nH]c1=O [GS-461203] | – | – | – | – | < 4.00 | 3.1 | < 4.00 | < 4.00 | < 4.00
